Source: patent US10471010B2, “Liposomal corticosteroids for treatment of inflammatory disorders in humans” (ENCELADUS PHARMACEUTICALS B.V., priority 2011, dated 2019)

Legend:
[1] = system: rats with adjuvant-induced arthritis; experiment: Rat adjuvant-induced arthritis, paw inflammation scores; assay type: in vivo, Lewis rats; details: for effect on the course of the disease: single injection, equal dose (10 mg/kg), 10 mg/kg
Experimental: Lewis rats were immunized subcutaneously at the tail base with heat-inactivated Mycobacterium tuberculosis in incomplete Freund's adjuvant. […] Assessment of the disease was performed by visually scoring paw inflammation severity, maximum score 4 per paw, and measuring disease-induced body weight loss. The therapeutic efficacy of liposomal prednisolone phosphate on these variables was compared with equal doses unencapsulated drug. Rats were treated when the average score >6 (at day 14 or 15 after disease induction).

[2] = potency of prednisolone set to 1; cited from earlier work

Compound	average inflammation scores ([1]; 20 mg/kg daily for 7 days, day 15 until day 21, from average 6.5 on day 14)	effect of repeated daily treatment ([1]; repeated daily treatment)	effect on the course of the disease [1]	effect on the course of the disease ([1]; listed as free prednisolone)	potency ratio as compared to prednisolone [2]
C[C@]12C=CC(=O)C=C1CC[C@@H]1[C@@H]2[C@@H](O)C[C@@]2(C)[C@H]1CC[C@]2(O)C(=O)COP(=O)(O)O [Unencapsulated prednisolone phosphate, prednisolone phosphate]	around 5.0	short-lasting moderate effect	did not significantly alter the course of the disease	not effective	
CC(=O)OCC(=O)[C@@]1(O)CC[C@H]2[C@@H]3CCC4=CC(=O)CC[C@]4(C)[C@@]3(F)[C@@H](O)C[C@@]21C [fludrocortisone acetate]					3.5
C[C@]12C=CC(=O)C=C1CC[C@H]1[C@@H]3C[C@@H](O)[C@](O)(C(=O)CO)[C@@]3(C)C[C@H](O)[C@@]12F [triamcinolone]					1.25
